Target: T1, human TAS1R2-I191V (subunit alone) (Homo sapiens, UniProt Q8TE23, I191V)
T1 construct: expressed in transfected cells; host or cells: HEK293T-Gα16gust44
T1 sequence (Q8TE23 20-839 I191V): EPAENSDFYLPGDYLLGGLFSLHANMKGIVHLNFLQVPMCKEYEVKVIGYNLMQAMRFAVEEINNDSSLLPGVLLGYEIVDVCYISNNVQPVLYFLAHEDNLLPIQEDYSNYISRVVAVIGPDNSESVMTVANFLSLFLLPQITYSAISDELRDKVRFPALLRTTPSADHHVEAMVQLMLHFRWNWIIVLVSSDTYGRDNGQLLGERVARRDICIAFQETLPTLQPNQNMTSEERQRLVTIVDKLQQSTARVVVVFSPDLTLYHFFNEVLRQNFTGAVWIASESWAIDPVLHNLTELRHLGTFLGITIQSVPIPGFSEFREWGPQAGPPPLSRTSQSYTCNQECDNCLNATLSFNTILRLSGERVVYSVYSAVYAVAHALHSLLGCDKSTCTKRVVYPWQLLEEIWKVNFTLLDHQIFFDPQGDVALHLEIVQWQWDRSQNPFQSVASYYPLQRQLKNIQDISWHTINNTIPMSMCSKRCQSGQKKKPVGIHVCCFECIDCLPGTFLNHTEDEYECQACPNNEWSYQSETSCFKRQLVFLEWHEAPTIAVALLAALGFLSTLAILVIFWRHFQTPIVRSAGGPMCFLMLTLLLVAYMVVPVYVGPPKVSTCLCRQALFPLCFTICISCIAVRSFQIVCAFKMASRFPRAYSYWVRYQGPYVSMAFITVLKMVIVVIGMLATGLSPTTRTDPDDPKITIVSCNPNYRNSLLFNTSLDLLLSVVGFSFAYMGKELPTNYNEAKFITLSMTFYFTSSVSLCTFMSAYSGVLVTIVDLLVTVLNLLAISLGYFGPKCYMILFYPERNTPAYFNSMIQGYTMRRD
Experiment: Calcium mobilisation assay, TAS1R2-I191V subunit alone
Format: cell-based
Description: The coding sequences for TAS1R2 and TAS1R3 were commercially synthesised, and the human codon was optimised for expression in human cells. The coding sequences of human TAS1R2 and TAS1R3 were subcloned and inserted into the mammalian expression vectors pcDNA6/myc-HisA and pcDNA4/myc-HisA (Invitrogen; Thermo Fisher Scientific; Illkirch, France) between the EcoRI and NotI restriction sites, generating the plasmids pcDNA6-TAS1R2 and pcDNA4-TAS1R3, respectively. To increase protein expression in mammalian cells, an upstream start codon was used, which was a sequence called MAX, corresponding to the QBI SP163 element also described in pcDNA4-HisMax (Invitrogen; Thermo Fisher Scientific; Illkirch, France). To measure the expression level of the receptor by immunohistochemistry, we used the FLAG sequence ([…]) in the C-terminal position, which encodes the FLAG tag epitope. […]
The HEK293T cells were kindly provided by Jay P. Slack (Givaudan Flavors Corporation; Cincinnati, OH, USA). […] The fluorescence intensity was measured for 90 s (excitation 488 nm, emission 510 nm) in an automated fluorometric FlexStation®3 Multi-Mode microplate reader (Molecular Devices; San Jose, CA, USA). […] The Ca^2+ changes were expressed as fractional changes in fluorescent light intensity: ΔF/F = (F − F0)/F0, where F was the fluorescent light intensity at each point, and F0 was the value of emitted fluorescent light prior to stimulus application. To calculate dose–response relationships, the changes in fluorescence upon stimulus application were averaged, mock-subtracted and baseline-corrected. […] The half-maximal effective concentrations (EC50 values) and maximal signal amplitudes were calculated using SigmaPlot software (version 15.0) (Systat Software; San Jose, CA, USA).
For in vitro calcium mobilisation assay performed on hTAS1R2-SNPs, hTAS1R3-SNPs and mTAS1R3-I60T, 6 to 7 concentrations were tested for each sweet compound, plus buffer alone. All concentration–receptor combinations were measured in duplicate, and each experiment was repeated at least 4 times (8 wells/concentration). […]

## C=C(C)[C@@H]1CC=C(/C=N/O)CC1 [Perillartine, perillartine]
  EC50: 390 ± 47 µM
  R1 = Variant EC50/WT EC50: 4.3
Maximal signal amplitude
  Max ΔF/F0: 0.19 ± 0.01

Reference: publication PMC11945486, “TAS1R2/TAS1R3 Single-Nucleotide Polymorphisms Affect Sweet Taste Receptor Activation by Sweeteners: The SWEET Project” (Nutrients, 2025)
